The source made the active and inactive calls. The calls are words filed in the database; no cut-off is given here.
Columns and labels:
A-375 [1] = assay: Induction of cell cycle arrest in human A-375 cells assessed as accumulation at G1 phase at 5 uM incubated for 24 hrs by PI staining based flow cytometry analysis (reference value: 68.07 %); type: functional
[2] = Toxicity in BALB/c mouse assessed as effect on body weight at 125 to 200 mg/kg, iv administered for 7 days and measured once per 2 days; type: organism-based; details: in vivo, 168 h, dose 125-200 mg/kg, time 7 day
[3] = Toxicity in BALB/c mouse assessed as histopathological changes in spleen at 50 to 100 mg/kg, iv measured after 7 days by H and E staining based assay; type: organism-based; details: in vivo, 168 h, dose 50-100 mg/kg, time 7 day
[4] = Toxicity in BALB/c mouse assessed as histopathological changes in liver at 50 to 100 mg/kg, iv measured after 7 days by H and E staining based assay; type: organism-based; details: in vivo, 168 h, dose 50-100 mg/kg, time 7 day
[5] = Metabolic stability in Sprague-Dawley rat plasma assessed as elimination half life by LC-MS/MS analysis; type: ADME, cell-free; details: read-out: beta t1/2
A-375 [6] = assay: Cytotoxicity against human A-375 cells assessed as reduction in cell vaibility measured at 24 hrs in absence of BNPP by MTT assay; type: functional, cell-based; details: A-375, 24 h
A-375 [7] = assay: Cytotoxicity against human A-375 cells assessed as reduction in cell vaibility measured at 48 hrs in absence of BNPP by MTT assay; type: functional, cell-based; details: A-375, 48 h
A-375 [8] = assay: Cytotoxicity against human A-375 cells assessed as reduction in cell vaibility measured at 24 hrs in presence of BNPP by MTT assay; type: functional, cell-based; details: A-375, 24 h
[9] = Apparent permeability across basolateral to apical side in human Caco-2 cells at 2 uM measured after 2 hrs by LC-MS/MS analysis; type: ADME, cell-based
[10] = Efflux ratio of apparent permeability from basolateral to apical side over apical to basolateral side in human Caco2 cells by LC-MS/MS analysis; type: ADME, cell-based; details: Caco-2
[11] = target: Pyruvate dehydrogenase kinase (Homo sapiens) (UniProt Q15119+Q15120+Q16654+Q15118); assay: Inhibition of PDK in human A-375 cells assessed as reduction in PDH phosphorylation at ser293 residue at 5 to 20 uM after 24 to 48 hrs; type: cell-based; details: dose 5-20 µM, time 24-48 hrs
[12] = target: Histone deacetylase (Homo sapiens) (UniProt Q13547+O15379+Q9UBN7+Q92769+Q9UQL6+Q8WUI4+Q9BY41+Q96DB2+P56524+Q9UKV0+Q969S8); assay: Inhibition of HDAC in human A-375 cells assessed as upregulation of histone-H3 acetylation at 5 to 20 uM measured after 24 hrs; type: cell-based; details: dose 5-20 µM
HUVEC = assay: Induction of mitochondrial membrane hyperpolarization in HUVEC assessed as JC-1 level at 2.5 to 10 uM incubated for 4 hrs by JC-1 staining based flow cytometry analysis relative to control; type: functional, Homo sapiens; details: dose 2.5-10 µM
HEK-293T = assay: Induction of mitochondrial membrane hyperpolarization in HEK293T cells assessed as JC-1 level at 2.5 to 10 uM incubated for 4 hrs by JC-1 staining based flow cytometry analysis relative to control; type: functional, Homo sapiens; details: dose 2.5-10 µM
A-375 [13] = assay: Induction of mitochondrial membrane hyperpolarization in human A-375 cells assessed as JC-1 level at 2.5 to 10 uM incubated for 4 hrs by JC-1 staining based flow cytometry analysis relative to control; type: functional; details: dose 2.5-10 µM
MCF7 = assay: Induction of mitochondrial membrane hyperpolarization in human MCF7 cells assessed as JC-1 level at 2.5 to 10 uM incubated for 4 hrs by JC-1 staining based flow cytometry analysis relative to control; type: functional; details: dose 2.5-10 µM
A-375 [14] = assay: Induction of mitochondrial membrane depolarization in human A-375 cells assessed as reduction in red fluorescence intensity incubated for 4 hrs by TMRM staining based fluorescence microscopy analysis; type: functional, cell-based; details: dose 2.5-10 µM, DDE = dose-dependent effect
A-375 [15] = assay: Induction of apoptosis in human A-375 cells assessed as apoptotic cells at 5 uM measured after 48 hrs by Annexin V FITC/PI staining based flow cytometry analysis relative to control; type: functional
A-375 [16] = assay: Induction of apoptosis in human A-375 cells assessed as apoptotic cells at 10 uM measured after 48 hrs by Annexin V FITC/PI staining based flow cytometry analysis relative to control; type: functional
A-375 [17] = assay: Induction of apoptosis in human A-375 cells assessed as apoptotic cells at 10 uM measured at 24 hrs by Annexin V FITC/PI staining based flow cytometry analysis relative to control; type: functional
A-375 [18] = assay: Induction of apoptosis in human A-375 cells assessed as apoptotic cells at 10 uM measured at 72 hrs by Annexin V FITC/PI staining based flow cytometry analysis relative to control; type: functional
A-375 [19] = assay: Induction of cell cycle arrest in human A-375 cells assessed as accumulation at S phase at 5 uM incubated for 24 hrs by PI staining based flow cytometry analysis (reference value: 24.01 %); type: functional
A-375 [20] = assay: Inhibition of cell migration in human A-375 cells incubated for 24 hrs by wound healing assay; type: functional, cell-based; details: dose 1.5-2.5 µM, DDE = dose-dependent effect
A-375 [21] = assay: Inhibition of glycolysis in human A-375 cells assessed as reduction in extracellular acidification rate at 0.25 to 5 uM measured after 4 hrs; type: functional, cell-based; details: dose 0.25-5 µM
[22] = Toxicity in nude mouse xenografted with human A-375 cells assessed as body weight loss at 10 to 40 mg/kg, ip measured once every two days for 14 days; type: organism-based; details: in vivo, 336 h, dose 10-40 mg/kg, time 14 day
A-375 [23] = assay: Antitumor activity against human A-375 cells xenografted in nude mouse assessed as shrinkage of tumor tissue at 10 to 40 mg/kg, ip measured once every two days for 14 days; type: functional, organism-based; details: dose 10-40 mg/kg, time 14.0 day
A-375 [24] = assay: Antitumor activity against human A-375 cells xenografted in nude mouse assessed as induction of apoptosis by measuring morphological changes at 40 mg/kg, ip measured once every two days for 14 days by H and E staining based assay; type: functional, organism-based; details: time 14.0 day
A-375 [25] = assay: Antitumor activity against human A-375 cells xenografted in nude mouse assessed as induction of apoptosis by measuring morphological changes at 40 mg/kg, ip measured once every two days for 14 days by TUNEL assay; type: functional, organism-based; details: time 14.0 day
A-375 [26] = assay: Antitumor activity against human A-375 cells xenografted in nude mouse assessed as decrease in bcl-2 expression at 40 mg/kg, ip measured once every two days for 14 days by immunohistochemistry assay; type: functional, organism-based; details: time 14.0 day
[27] = Toxicity in BALB/c mouse assessed as change in body weight at 40 mg/kg, iv measured once every two days for 7 days; type: organism-based; details: in vivo, 168 h, time 7 day
A-375 [28] = assay: Antitumor activity against human A-375 cells implanted in BALB/c mouse assessed as tumor growth inhibition at 40 mg/kg, ip measured once every two days for 14 days; type: functional, organism-based; details: time 14.0 day
A-375 [29] = assay: Antitumor activity against human A-375 cells implanted in BALB/c mouse assessed as reduction in tumor weight at 40 mg/kg, ip measured once every two days for 14 days; type: functional, organism-based; details: time 14.0 day
A-375 [30] = assay: Antitumor activity against human A-375 cells implanted in BALB/c mouse assessed as shrinkage of tumor tissue at 40 mg/kg, ip measured once every two days for 14 days; type: functional, organism-based; details: time 14.0 day

For `O=C(CCCCCCCCC[P+](c1ccc(C(F)(F)F)cc1)(c1ccc(C(F)(F)F)cc1)c1ccc(C(F)(F)F)cc1)NC(COC(=O)CCCc1ccccc1)(COC(=O)CCCc1ccccc1)COC(=O)CCCc1ccccc1.[Br-]`, the Activity (A-375 [1]) was 75.69%, the Activity [2] was “Non-Toxic” and the Activity [3] was “Non-Toxic”. The Activity [4] was “Non-Toxic”, the half-life [5] was 4.28 h and the IC50 (A-375 [6]) was 6.06 µM. The IC50 (A-375 [7]) was 3.34 µM, the IC50 (A-375 [8]) was 28.4 µM and the Papp B→A at 2 h, 2 µM [9] was 16.8 ×10⁻⁶ cm/s. The efflux ratio [10] was 0.69, the inhibition [11] was “Active” and the inhibition [12] was “Active”. The Activity (HUVEC) was 16.08%, the Activity (HEK-293T) was 18.91% and the Activity (A-375 [13]) was 2.22%. For the same compound, the Activity (MCF7) was 3.6%, the Activity (A-375 [14]) was “Dde” and the Activity (A-375 [15]) was 12%. It also gave an Activity (A-375 [16]) of 50%, an Activity (A-375 [17]) of 7% and an Activity (A-375 [18]) of 77%. The Activity (A-375 [19]) was 15.46%, the inhibition (A-375 [20]) was “Dde” and the inhibition (A-375 [21]) was “Active”. For the same compound, the Activity [22] was “Non-Toxic”, the Activity (A-375 [23]) was “Active” and the Activity (A-375 [24]) was “Active”. For the same compound, the Activity (A-375 [25]) was “Active”, the Activity (A-375 [26]) was “Active” and the Activity [27] was “Non-Toxic”. The Activity (A-375 [28]) was “Active”, the Activity (A-375 [29]) was “Active” and the Activity (A-375 [30]) was “Active”.
